The subject of this assay is S. aureus. Briefly: Minimal inhibitory concentration (MIC), broth microdilution. The format is cell-based, Staphylococcus aureus. As to conditions: free drug. The method, then:
Bacteria (S. aureus, S. epidermis and E. coli) and Yeast (C. albicans) obtained from ATCC were reconstituted from its lyophilized form according to the manufacturer's protocol. Bacterial samples were cultured in tryptic soy broth (T-SB) or Mueller Hinton broth (M-HB) solution at 37° C., and yeast cells were cultured in YMB at room temperature under constant shaking of 100 rpm. The MICs of the polymers were measured using the broth microdilution method. Briefly, 100 microliters of the respect broth medium containing a polymer at various concentrations (15.6, 31.3, 62.5, 125, 250, 500, 1000, 2000 mg/L) was placed into each well of a 96-well tissue culture plate. An equal volume of microbial suspension (3×10^5 CFU/mL) was added into each well. Prior to mixing, the microbial sample was first inoculated overnight to enter its log growth phase. The concentration of microbial solution was adjusted to give an initial optical density (O.D.) reading of approximately 0.07 at 600 nm wavelength on a microplate reader (TECAN, Switzerland), which corresponds to the concentration of Mc Farland 1 solution (3×10^8 CFU/mL), the microbial solution was further diluted by 1000 times to achieve an initial loading of 3×10^5 CFU/mL. The bacterial samples were kept in an incubator at 37° C. for 18 hours, while the Yeast samples were kept at room temperature for 42 hours under constant shaking of 100 rpm. […]
In general terms: Dilution methods test growth across graded concentrations, often in twofold steps.

Each structure is given as a SMILES string.

Turning to `CC1(C)S[C@@H]2[C@H](NC(=O)Cc3ccccc3)C(=O)N2[C@H]1C(=O)O` [PenG, Penicillin G], the “MIC S. aureus” value was “about 0.01 mg/L”.
